From patent publication US20110118298A1, “COMPOSITIONS, KITS, AND METHODS FOR IDENTIFICATION, ASSESSMENT, PREVENTION, AND THERAPY OF CANCER” (INFINITY PHARMACEUTICALS, INC., priority 2009, published 2011)
Where a name gives a salt, the structure may show the parent alone.

What was measured:
H3122 cells = assay: Growth inhibition, Cell Titer Glo, 72 h; assay type: cell-based; settings: Homo sapiens, NCI-H3122, read-out: Wt H3122 (GI50, nM)
EML4-ALK [1] = assay: EML4-ALK and phospho-ALK level by ELISA in H3122 cells; assay type: cell-based, human
Excerpt: FIG. 7A depicts the relative dose-response curves of the level of EML-ALK (open circles) and phospho-EML4-ALK (solid squares) monitored using an ELISA in H3122 cells treated with increasing concentration of IPI-504 for 72 hr. Results are shown as percentage of untreated cells.
(§1) Rearrangements at the ALK locus have been reported in about 5% of NSCLC patients, forming an oncogenic fusion of the N-terminus of EML4 with the C-terminal kinase domain of ALK (Soda, M. et al. (2007) Nature 448: 561-6). To determine whether the EML4-ALK fusion protein is a client protein of Hsp90, we incubated the EML4-ALK-expressing NSCLC cell line H3122 with increasing concentrations of IPI-504 and measured the abundance of total and phosphorylated ALK protein by ELISA (FIG. 7a). In this experiment, virtually all ALK protein is degraded at concentrations above 50 nM IPI-504. The degradation IC50 measured (4 nM) makes this the most sensitive Hsp90 client protein we have encountered. To directly compare the sensitivity of EML4-ALK to other well known Hsp90 client proteins, we incubated H3122, BT-474 and H1650 cells with 1 uM IPI-504 for different times and probed for EML4-ALK, HER2 and mutant EGFR in the relevant cell lines. […] To further confirm that EML4-ALK is indeed a client of Hsp90, we performed immunoprecipitations with an antibody directed against Hsp90a, and detected a protein band at the predicted molecular weight ([…]) with an ALK antibody in Hsp90 immunoprecipitates from H3122 cells but not control cells (FIG. 7c, lane 1 and 3).
Cells were treated for the indicated time with IPI-504 and lysed in ice-cold cell lysis buffer (Cell Signaling, Beverly, Mass.) containing protease inhibitors and HALT phosphatase inhibitor (Pierce, Rockford, Ill.). Lysates were clarified by centrifugation at 14,000 g at 4° C. and protein concentration determined by BCA method (Pierce Rockford, Ill.). […] ALK and pALK level were also monitored using an ELISA (RnD Systems, Minneapolis, Minn.) according to supplier instructions. […]

BON-1 xenograft = assay: BON-1 xenograft; assay type: in vivo, NCr nude athymic mice; settings: IPI-504 15 mg/kg i.p. twice per week, end of study
Experimental: Xenographs were generated by injecting 5×10^6 BON-1 cells into the flanks of […]. IPI-504 (also referred to herein as IPI-504) (15 mg/kg) or vehicle were administered i.p. twice per week (n=10 per arm), and tumor xenograft size was monitored twice weekly with calipers. Results are presented as means and SEM.

mutant EGFR = assay: Time to client protein degradation by immunoblot, H1650 cells; assay type: cell-based, human; settings: 1 uM IPI-504
Experimental: (§2) FIG. 7B is panel of immunoblot images showing the levels of ALK, phospho-ALK and cleaved-PARP in H3122 cells, HER2 in BT474 cells, and EGFR in H1650 cells at various time points after IPI-504 (1 uM) treatment. Proteins levels were monitored by immunoblotting.
as §1, with “encountered.” for “encountered. To directly compare the sensitivity of EML4-ALK to other well known Hsp90 client proteins, we incubated H3122, BT-474 and H1650 cells with 1 uM IPI-504 for different times and probed for EML4-ALK, HER2 and mutant EGFR in the relevant cell lines.”, “3). […]” for “3).”

HER2 = assay: Time to client protein degradation by immunoblot, BT-474 cells; assay type: cell-based, human; settings: 1 uM IPI-504
Experimental: as §2
as §1, with “encountered.” for “encountered. To directly compare the sensitivity of EML4-ALK to other well known Hsp90 client proteins, we incubated H3122, BT-474 and H1650 cells with 1 uM IPI-504 for different times and probed for EML4-ALK, HER2 and mutant EGFR in the relevant cell lines.”, “3). […]” for “3).”

EML4-ALK [2] = assay: H3122 xenograft, PD time course by ALK specific ELISA; assay type: in vivo, nude mice; settings: single injection of IPI-504 (100 mg/kg), tumors
Experimental: FIGS. 12A-12B depict a PD time course after IPI-504 treatment. After a single injection of 100 mg/kg IPI-504 tumors were collected at various times and ALK (FIG. 12A) and cleaved PARP (FIG. 12B) levels were monitored using ELISA and immunoblotting respectively.
Consistent with this, the responses to Hsp90 inhibitors in the clinic have so far mostly consisted of induction of stable disease. […] H3122 cells were injected into the flanks of nude mice and animals were treated with 75 mg/kg of IPI-504 twice weekly. […] To confirm degradation of EML4-ALK within these tumors, a separate arm was included in the study where tumors were harvested at different time points after a single injection of IPI-504 and the abundance of the fusion protein over time was monitored using an ALK specific ELISA (FIG. 12A). […] The depletion of EML4-ALK coincides with the appearance of PARP cleavage, an indication of caspase 3 activation and the induction of apoptosis (FIG. 12B).

Compound: C=CCNc1c(O)cc2c(O)c1C[C@@H](C)C[C@H](OC)[C@H](O)[C@@H](C)/C=C(\C)[C@H](OC(N)=O)[C@@H](OC)/C=C\C=C(/C)C(=O)N2 [IPI-504, retaspimycin hydrochloride]
- GI50 (H3122 cells): 22 nM
- concentration above which virtually all ALK protein is degraded (EML4-ALK [1]; ELISA): above 50 nM
- degradation IC50 of EML4-ALK (EML4-ALK [1]; ELISA of total and phosphorylated ALK): low nanomolar range
- IC50 (EML4-ALK [1]; ELISA of total and phosphorylated ALK, read-out: degradation IC50 of EML4-ALK): 0.004 µM
- reduction in tumor size compared with vehicle (BON-1 xenograft): 58%
- time for most of the mutEGFR to be degraded (mutant EGFR): about 24 h
- time for most of the HER2 to be degraded (HER2): about 24 h
- time ALK fusion protein is depleted after a single injection (EML4-ALK [2]): more than 48 h
